The term Ki denotes the dissociation constant of the complex between target and ligand, obtained from inhibition or displacement.

We go through 19 molecules from patent US11834463B2, “High affinity macrocyclic FKB51-inhibitors for treatment of psychiatric disorders” (priority 2020, dated 2023).

SMILES strings stand for the structures. Read-outs that look alike come from different tables or passages of the source. Some results are limits rather than exact numbers.

For one assay, the target named is FKBP12.6 (Homo sapiens, UniProt P68106). The assay can be described thus: competitive fluorescence polarization assay, binding to FKBP12.6. As to the method: (§1) All macrocyclic compounds were tested in a competitive fluorescence polarization assay for binding towards FKBP51 as well as the homologs FKBP12, FKBP12.6 and FKBP52 (Table 1).
Chain of FKBP12.6 (P68106 whole entry): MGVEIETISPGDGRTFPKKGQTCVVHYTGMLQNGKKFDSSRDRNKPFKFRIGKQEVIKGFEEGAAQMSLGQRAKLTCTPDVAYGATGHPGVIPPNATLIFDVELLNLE
(§2) Example 8: […] of the Macrocyclic FKBP51 Ligands by SPPS
A general note: Fluorescence polarisation rises when a labelled molecule tumbles more slowly, as on binding a larger partner.

For the next assay, the target named is T1, FKBP51FK1 (Homo sapiens, UniProt Q13451).
T1 sequence (Q13451 42-130 limits assumed): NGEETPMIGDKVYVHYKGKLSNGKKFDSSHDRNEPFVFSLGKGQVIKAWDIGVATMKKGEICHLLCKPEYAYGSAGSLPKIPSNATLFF
In words: biochemical. On the procedure:
as §1, §2

The target of another assay is FKBP12 (Homo sapiens, UniProt P62942). In words: competitive fluorescence polarization assay, binding to FKBP12. On the procedure:
as §1, §2

The mark [1] stands for this setting: affinity, same values as Table 2 FKBP51FK1.
[2] abbreviates: Table 1, competitive Fluorescence Polarization Assay, read-out: Ki [nM] FKBP12.6.
[3] abbreviates: Ki [nM] FKBP51FK1, Table 1, competitive Fluorescence Polarization Assay.
Where [4] appears, read: Table 1, competitive Fluorescence Polarization Assay, read-out: Ki [nM] FKBP12.

Chain of FKBP12 (P62942 whole entry): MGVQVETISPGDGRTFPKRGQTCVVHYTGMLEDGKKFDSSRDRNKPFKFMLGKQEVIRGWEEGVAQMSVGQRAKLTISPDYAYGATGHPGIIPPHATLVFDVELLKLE

In the case of `COc1ccc(CC[C@H]2OC(=O)[C@@H]3CCCCN3C(=O)[C@@H](C3CCCCC3)NC(=O)C(C)(C)NC(=O)COc3cccc2c3)cc1OC` [Compound 85, (2R,5S,12R)-12-cyclohexyl-2-[2-(3,4-dimethoxyphenyl)ethyl]-15,15-dimethyl-3,19-dioxa-10,13,16-triazatricyclo[18.3.1.0^5,10]tetracosa-1(24),20,22-triene-4,11,14,17-tetrone], the Ki is more than 80000 nM on FKBP12.6 (Table 2, read-out: FKBP12.6 Ki); 290 nM at FKBP51FK1 (setting [1]); more than 80000 nM on FKBP12 (Table 2, read-out: FKBP12 Ki).

As to `COc1ccc(CCC2OC(=O)C3CCCCN3C(=O)C(C3CCCCC3)c3cc(OC)c(OC)c(c3)OCC(O)C(O)COc3cccc2c3)cc1OC` (single isomer, unassigned) [Compound 64a], the values for the Ki at FKBP12.6 (setting [2]), at FKBP51FK1 (setting [3]) and at FKBP12 (setting [4]) were 10 nM, 4 nM and 23 nM, respectively.

On to `COc1ccc(CC[C@H]2OC(=O)[C@@H]3CCCCN3C(=O)[C@@H](C3CCCCC3)CC(O)C(O)COCCOc3cccc2c3)cc1OC` (stereo partly drawn) [Compound 82, (2R,5S,12R)-12-cyclohexyl-2-[2-(3,4-dimethoxyphenyl)ethyl]-14,15-dihydroxy-3,17,20-trioxa-10-azatricyclo[19.3.1.0^5,10]pentacosa-1(25),21,23-triene-4,11-dione], for which, at FKBP12.6, the “binding to FKBP12.6 (in words)” value was “did not bind”. In addition, the affinity at FKBP51FK1 (Ki, bound to FKBP51, text b114) corresponds to a Ki of 1200 nM. Besides, the “binding to FKBP12 (in words)” value at FKBP12 was “did not bind”.

For the molecule `COc1ccc(CC[C@H]2OC(=O)[C@@H]3CCCCN3C(=O)[C@@H](C3CCCCC3)c3cc(OC)c(c(OC)c3)OCC(O)C(O)COc3cccc2c3)cc1OC` (mixture of isomers) [Compound 63], the inhibitory constant (Ki) worked out at 83 nM on FKBP12.6 (setting [2]), 11 nM at FKBP51FK1 (setting [3]) and 97 nM at FKBP12 (setting [4]).

On to `COc1ccc(CC[C@H]2OC(=O)[C@@H]3CCCCN3C(=O)[C@@H](C3CCCCC3)c3cc(OC)c(OC)c(c3)OCCCCCOc3cccc2c3)cc1OC` [Compound 44], for which the inhibitory constant (Ki) on FKBP12.6 (setting [2]) was 65 nM; on FKBP51FK1 (setting [3]), 43 nM; on FKBP12 (setting [4]), 88 nM.

For the molecule `COc1ccc(CC[C@H]2OC(=O)[C@@H]3CCCCN3C(=O)[C@@H](C3CCCCC3)c3cc(OC)c(OC)c(c3)OCCCOCCCCOc3cccc2c3)cc1OC` [Compound 46], the inhibitory constant (Ki) worked out at 116 nM on FKBP12.6 (setting [2]), 80 nM on FKBP51FK1 (setting [3]) and 449 nM at FKBP12 (setting [4]).

In the case of `COc1ccc(CC[C@H]2OC(=O)[C@@H]3CCCCN3C(=O)[C@@H](C3CCCCC3)NC(=O)C3(CCC3)NC(=O)COc3cccc2c3)cc1OC` [Compound 87, (2′R,5'S,12′R)-12′-cyclohexyl-2′-[2-(3,4-dimethoxyphenyl)ethyl]-3′, 19′-dioxa-10′, 13′, 16′-triazaspiro[cyclobutane-1,15′-tricyclo[18.3.1.0^5,10° ]tetracosane]-1′(24′),20′, 22′-triene-4′, 11′, 14′, 17′-tetrone], the Ki is more than 80000 nM on FKBP12.6 (Table 2, read-out: FKBP12.6 Ki); 400 nM on FKBP51FK1 (setting [1]); more than 80000 nM at FKBP12 (Table 2, read-out: FKBP12 Ki).

In the case of `COc1ccc(CC[C@H]2OC(=O)[C@@H]3CCCCN3C(=O)[C@@H](C3CCCCC3)NC(=O)[C@@H]3CCC[C@H]3NC(=O)COc3cccc2c3)cc1OC` [Compound 94, (2R,5S,12R,15R,19R)-12-cyclohexyl-2-[2-(3,4-dimethoxyphenyl)ethyl]-3,23-dioxa-10,13,20-triazatetracyclo[22.3.1.0^5,10.0^15,19]octacosa-1(28),24,26-triene-4,11,14,21-tetrone], the Ki was more than 80000 nM on FKBP12.6 (Table 2, read-out: FKBP12.6 Ki); 1800 nM at FKBP51FK1 (setting [1]); more than 80000 nM at FKBP12 (Table 2, read-out: FKBP12 Ki).

With `COc1ccc(CC[C@H]2OC(=O)[C@@H]3CCCCN3C(=O)[C@@H](C3CCCCC3)c3cc(OC)c(OC)c(c3)OCCOCCCCOc3cccc2c3)cc1OC` [Compound 45], the Ki on FKBP12.6 (setting [2]) was 84 nM; on FKBP51FK1 (setting [3]), 48 nM; on FKBP12 (setting [4]) it was 123 nM.

As to `COc1ccc(CC[C@H]2OC(=O)[C@@H]3CCCCN3C(=O)[C@@H](C3CCCCC3)c3cc(OC)c(OC)c(c3)OCCCCOc3cccc2c3)cc1OC` [Compound 43], the Ki came out at 62 nM on FKBP12.6 (setting [2]), 30 nM at FKBP51FK1 (setting [3]) and 92 nM on FKBP12 (setting [4]).

On to `COc1cccc([C@@H](CCc2ccc(OC)c(OC)c2)OC(=O)[C@@H]2CCCCN2C(=O)[C@H](c2cc(OC)c(OC)c(OC)c2)C2CCCCC2)c1` [Compound A1, reference compound], for which the Ki is 199 nM at FKBP12.6 (setting [2]), 94 nM at FKBP51FK1 (setting [3]) and 222 nM on FKBP12 (setting [4]).

On to `COc1ccc(CC[C@H]2OC(=O)[C@@H]3CCCCN3C(=O)[C@@H](C3CCCCC3)NC(=O)CNC(=O)COc3cccc2c3)cc1OC` [Compound 83, (2R,5S,12R)-12-cyclohexyl-2-[2-(3,4-dimethoxyphenyl)ethyl]-3,19-dioxa-10,13,16-triazatricyclo[18.3.1.0^5,10]tetracosa-1(24),20,22-triene-4,11,14,17-tetrone], for which the inhibition constant (Ki) at FKBP12.6 (Table 2, read-out: FKBP12.6 Ki) was more than 80000 nM; on FKBP51FK1 (setting [1]), 2300 nM; at FKBP12 (Table 2, read-out: FKBP12 Ki), more than 80000 nM.

Regarding `COc1ccc(CC[C@H]2OC(=O)[C@@H]3CCCCN3C(=O)[C@@H](C3CCCCC3)c3cc(OC)c(OC)c(c3)OCCCOc3cccc2c3)cc1OC` [Compound 58], the values for the Ki on FKBP12.6 (setting [2]), at FKBP51FK1 (setting [3]) and on FKBP12 (setting [4]) were 87 nM, 54 nM and 401 nM, respectively.

In the case of `COc1ccc(CC[C@H]2OC(=O)[C@@H]3CCCCN3C(=O)[C@@H](C3CCCCC3)c3cc(OC)c(OC)c(c3)OCCOCC(=O)CCOc3cccc2c3)cc1OC` [Compound 62], the inhibition constant (Ki) was found to be 57 nM on FKBP12.6 (setting [2]), 23 nM at FKBP51FK1 (setting [3]) and 39 nM at FKBP12 (setting [4]).

Consider `COc1ccc(CCC2OC(=O)C3CCCCN3C(=O)C(C3CCCCC3)c3cc(OC)c(OC)c(c3)OCC(O)C(O)COc3cccc2c3)cc1OC` (single isomer, unassigned) [Compound 64b], for which the inhibitory constant (Ki) was 17 nM on FKBP12.6 (setting [2]), 13 nM at FKBP51FK1 (setting [3]) and 34 nM on FKBP12 (setting [4]).

Regarding `COc1ccc(CC[C@H]2OC(=O)[C@@H]3CCCCN3C(=O)[C@@H](C3CCCCC3)c3cc(OC)c(OC)c(c3)OCCOC/C=C/COc3cccc2c3)cc1OC` [37-(E)], the Ki was determined as 74 nM at FKBP12.6 (setting [2]), 46 nM at FKBP51FK1 (setting [3]) and 182 nM at FKBP12 (setting [4]).

In the case of `COc1ccc(CC[C@H]2OC(=O)[C@@H]3CCCCN3C(=O)[C@@H](C3CCCCC3)NC(=O)C3(CCCC3)NC(=O)COc3cccc2c3)cc1OC` [Compound 88, (2′R,5'S,12′R)-12′-cyclohexyl-2′-[2-(3,4-dimethoxyphenyl)ethyl]-3′, 19′-dioxa-10′, 13′, 16′-triazaspiro[cyclopentane-1,15′-tricyclo[18.3.1.0^5,10]tetracosane]-1′(24′),20′, 22′-triene-4′, 11′, 14′, 17′-tetrone], the Ki was more than 80000 nM at FKBP12.6 (Table 2, read-out: FKBP12.6 Ki); 1300 nM at FKBP51FK1 (setting [1]); more than 80000 nM at FKBP12 (Table 2, read-out: FKBP12 Ki).

As to `COc1ccc(CC[C@H]2OC(=O)[C@@H]3CCCCN3C(=O)[C@@H](C3CCCCC3)NC(=O)CN(C)C(=O)COc3cccc2c3)cc1OC` [Compound 89, (2R,5S,12R)-12-cyclohexyl-2-[2-(3,4-dimethoxyphenyl)ethyl]-16-methyl-3,19-dioxa-10,13,16-triazatricyclo[18.3.1.0^5,10]tetracosa-1(24),20,22-triene-4,11,14,17-tetrone], the Ki on FKBP12.6 (Table 2, read-out: FKBP12.6 Ki) was more than 80000 nM; at FKBP51FK1 (setting [1]) it was 3100 nM; on FKBP12 (Table 2, read-out: FKBP12 Ki), more than 80000 nM.

As for `COc1ccc(CC[C@H]2OC(=O)[C@@H]3CCCCN3C(=O)[C@@H](C3CCCCC3)c3cc(OC)c(c(OC)c3)OC/C=C\COc3cccc2c3)cc1OC` [31-(Z)], the inhibitory constant (Ki) was found to be 328 nM on FKBP12.6 (setting [2]), 70 nM at FKBP51FK1 (setting [3]) and 261 nM at FKBP12 (setting [4]).
